Measured values reported in US6133275A, “3-phenylpyrrolidine alpha-1 adrenergic compounds” (Abbott Laboratories, priority 1998, dated 2000).
Where a name gives a salt, the structure may show the parent alone.

Assays:
α1a (Bovine) = target: T1, α1a (Bovine) (Bos taurus, UniProt P18130); assay: Radioligand binding, displacement of [3H]-prazosin from cloned α1a (bovine) expressed in LTK cells; settings: [3H]-prazosin 0.2 nM; cloned bovine α1a in LTK cell membranes; 25° C., 50 minutes
T1 sequence (P18130 1-466): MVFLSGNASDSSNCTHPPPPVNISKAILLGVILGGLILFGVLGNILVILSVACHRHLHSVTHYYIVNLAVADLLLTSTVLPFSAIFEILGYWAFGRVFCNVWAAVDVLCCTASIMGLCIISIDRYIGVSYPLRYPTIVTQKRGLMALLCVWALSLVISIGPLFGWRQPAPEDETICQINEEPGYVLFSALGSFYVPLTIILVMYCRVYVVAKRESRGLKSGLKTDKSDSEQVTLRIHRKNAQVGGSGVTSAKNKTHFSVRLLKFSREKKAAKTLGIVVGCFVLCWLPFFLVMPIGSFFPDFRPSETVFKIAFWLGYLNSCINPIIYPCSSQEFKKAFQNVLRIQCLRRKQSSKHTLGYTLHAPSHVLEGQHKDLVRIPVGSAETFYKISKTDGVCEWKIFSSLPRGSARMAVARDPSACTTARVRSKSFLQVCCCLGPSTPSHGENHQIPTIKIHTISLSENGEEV

α1d (rat) = target: T2, α1d (rat) (Rattus norvegicus, UniProt P23944); assay: Radioligand binding, displacement of [3H]-prazosin from cloned α1d (rat) expressed in LTK cells; settings: [3H]-prazosin 0.2 nM; cloned rat α1d in LTK cell membranes; 25° C., 50 minutes
T2 sequence (P23944 1-561): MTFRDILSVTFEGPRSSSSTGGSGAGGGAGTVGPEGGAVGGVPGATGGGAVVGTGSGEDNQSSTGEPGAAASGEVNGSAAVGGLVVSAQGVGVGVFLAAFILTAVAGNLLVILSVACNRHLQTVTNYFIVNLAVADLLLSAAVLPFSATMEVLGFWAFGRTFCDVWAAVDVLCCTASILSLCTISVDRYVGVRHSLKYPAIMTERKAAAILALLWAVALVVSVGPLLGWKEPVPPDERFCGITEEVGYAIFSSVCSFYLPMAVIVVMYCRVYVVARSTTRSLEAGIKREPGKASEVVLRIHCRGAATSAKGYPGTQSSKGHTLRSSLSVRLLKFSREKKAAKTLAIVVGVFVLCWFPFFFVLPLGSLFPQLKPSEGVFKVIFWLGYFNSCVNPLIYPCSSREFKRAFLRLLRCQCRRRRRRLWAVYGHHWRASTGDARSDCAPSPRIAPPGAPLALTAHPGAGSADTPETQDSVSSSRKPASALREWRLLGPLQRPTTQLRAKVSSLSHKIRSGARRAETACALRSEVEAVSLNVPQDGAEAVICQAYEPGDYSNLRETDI

α1b (Hamster) = target: T3, α1b (Hamster) (Mesocricetus auratus, UniProt P18841); assay: Radioligand binding, displacement of [3H]-prazosin from cloned α1b (hamster) expressed in LTK cells; settings: [3H]-prazosin 0.2 nM; cloned hamster α1b in LTK cell membranes; 25° C., 50 minutes
T3 sequence (P18841 1-515): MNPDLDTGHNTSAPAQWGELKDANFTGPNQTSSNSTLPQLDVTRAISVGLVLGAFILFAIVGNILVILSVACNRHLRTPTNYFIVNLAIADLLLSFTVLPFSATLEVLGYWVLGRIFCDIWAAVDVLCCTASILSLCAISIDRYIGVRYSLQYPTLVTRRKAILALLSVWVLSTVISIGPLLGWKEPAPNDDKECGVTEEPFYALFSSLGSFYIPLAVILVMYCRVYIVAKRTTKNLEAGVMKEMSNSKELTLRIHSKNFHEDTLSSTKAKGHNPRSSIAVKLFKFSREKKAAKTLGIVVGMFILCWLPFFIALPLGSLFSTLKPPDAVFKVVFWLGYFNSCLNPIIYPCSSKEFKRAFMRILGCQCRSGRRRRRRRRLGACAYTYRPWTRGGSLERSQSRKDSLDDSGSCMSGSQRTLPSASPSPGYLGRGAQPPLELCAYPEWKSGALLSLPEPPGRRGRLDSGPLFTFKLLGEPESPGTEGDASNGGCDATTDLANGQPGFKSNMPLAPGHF

α1a (Rat) = target: T4, α1a (Rat) (Rattus norvegicus, UniProt P43140); assay: Radioligand binding, displacement of [3H]-prazosin from cloned α1a (rat) expressed in LTK cells; settings: [3H]-prazosin 0.2 nM; cloned rat α1a in LTK cell membranes; 25° C., 50 minutes
T4 sequence (P43140 1-466): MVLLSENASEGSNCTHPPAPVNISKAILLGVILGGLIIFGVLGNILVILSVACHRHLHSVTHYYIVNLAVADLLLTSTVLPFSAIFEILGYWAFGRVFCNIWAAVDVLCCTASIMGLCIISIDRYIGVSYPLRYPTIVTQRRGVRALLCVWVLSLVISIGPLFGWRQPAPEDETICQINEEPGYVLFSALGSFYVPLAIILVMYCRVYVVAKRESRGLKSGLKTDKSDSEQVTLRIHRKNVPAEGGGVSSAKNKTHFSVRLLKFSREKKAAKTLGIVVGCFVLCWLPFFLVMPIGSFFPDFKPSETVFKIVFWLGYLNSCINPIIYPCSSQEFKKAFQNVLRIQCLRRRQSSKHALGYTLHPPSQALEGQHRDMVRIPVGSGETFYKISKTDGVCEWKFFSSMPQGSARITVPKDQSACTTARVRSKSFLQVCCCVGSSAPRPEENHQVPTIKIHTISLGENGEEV

Ki (α1a (Bovine)) [nM] | Ki (α1d (rat)) [nM] | Ki (α1b (Hamster)) [nM] | Ki (α1a (Rat)) [nM] | Structure (SMILES)
0.32 | 2.35 | 7.38 | 3.3 | COc1ccccc1[C@H]1CCN(CCCCCn2c(=O)[nH]c3c(sc4ncccc43)c2=O)C1 [Example 9, (R)-3-[5-[3-(2-methoxyphenyl)-1-pyrrolidinyl]pentyl]pyrido[3',2':4,5]thieno[3,2-d]pyrimidine-2,4(1H,3H)-dione, Dihydrochloride]
0.05 | 0.06 | 1.18 | 0.22 | COc1ccccc1[C@H]1CCN(CCCCn2c(=O)[nH]c3c(sc4ccc(Cl)nc43)c2=O)C1 [Example 10, (R)-8-chloro-3-[4-[3-(2-methoxyphenyl)-1-pyrrolidinyl]butyl]pyrido[2',3':4,5]thieno[3,2-d]pyrimidine-2,4(1H,3H)-dione, Dihydrochloride]
0.11 | 0.12 | 1.79 | 0.67 | COc1ccc2sc3c(=O)n(CCCCN4CC[C@H](c5ccccc5OC)C4)c(=O)[nH]c3c2n1 [Example 11, (R)-8-methoxy-3-[4-[3-(2-methoxyphenyl)-1-pyrrolidinyl]butyl]pyrido-[2',3':4,5]thieno[3,2-d]pyrimidine-2,4(1H,3H)-dione, Dihydrochloride]
0.06 | 0.28 | 0.96 | 0.32 | COc1ccccc1[C@H]1CCN(CCCCN2C(=O)c3ccccc3C2=O)C1 [Example 12, (R)-2-[4-[3-(2-methoxyphenyl)-1-pyrrolidinyl]butyl]-1H-isoindole-1,3(2H)-dione, Monohydrochloride]
0.07 | 0.36 | 2.99 | 0.21 | COc1ccccc1[C@H]1CCN(CCCCn2c(=O)[nH]c3c(sc4nccnc43)c2=O)C1 [Example 13, (R)-3-[4-[3-(2-Methoxyphenyl)-1-pyrrolidinyl]butyl]pyrazino[2',3':4,5]thieno[3,2-d]pyrimidine-2,4(1H,3H)-dione, Dihydrochloride]
0.09 | 0.47 | 5.9 | 0.22 | COc1ccccc1[C@H]1CCN(CCCCn2c(=O)[nH]c3c(sc4ncc(Cl)nc43)c2=O)C1 [Example 14, (R)-8-Chloro-3-[4-[3-(2-methoxyphenyl)-1-pyrrolidinyl]butyl]pyrazino[2',3':4,5]thieno[3,2-d]pyrimidine-2,4(1H,3H)-dione, Dihydrochloride]
0.06 | 0.15 | 2.37 | 0.26 | COc1cnc2sc3c(=O)n(CCCCN4CC[C@H](c5ccccc5OC)C4)c(=O)[nH]c3c2n1 [Example 15, (R)-8-Methoxy-3-[4-[3-(2-methoxyphenyl)-1-pyrrolidinyl]butyl]pyrazino-[2',3':4,5]thieno[3,2-d]pyrimidine-2,4(1H,3H)-dione, Dihydrochloride]
0.09 | 0.64 | 11.8 | 1.61 | COc1ccccc1[C@H]1CCN(CCCCn2c(=O)[nH]c3c(sc4ncc(-c5ccccc5)nc43)c2=O)C1 [Example 16, (R)-8-phenyl-3-[4-[3-(2-methoxyphenyl)-1-pyrrolidinyl]butyl]pyrazino[2',3':4,5]thieno[3,2-d]pyrimidine-2,4(1H,3H)-dione, Dihydrochloride]
0.03 | 0.22 | 1.1 | 0.13 | COc1ccccc1[C@H]1CCN(CCCCN2C(=O)c3ccccc3S2(=O)=O)C1 [Example 17, (R)-2-[4-[3-(2-methoxyphenyl)-1-pyrrolidinyl]butyl]-1,2-benzoisothiazol-3(2H)-one, 1,1-dioxide Monohydrochloride]

Further lines, the compound ahead of its results:

Structure (SMILES) | Ki (α1a (Bovine)) [nM] | Ki (α1d (rat)) [nM] | Ki (α1b (Hamster)) [nM] | Ki (α1a (Rat)) [nM]
COc1ccccc1[C@H]1CCN(CCn2c(=O)[nH]c3c(sc4ccccc43)c2=O)C1 [Example 1, (R)-3-[2-[3-(2-Methoxyphenyl)-1-pyrrolidinyl]ethyl]-[1]benzothieno[3,2-d]pyrimidine-2,4(1H,3H)-dione, Monohydrochloride] | 0.13 | 0.82 | 0.94 | 1.8
COc1ccccc1[C@H]1CCN(CCCCn2c(=O)[nH]c3c(sc4ccccc43)c2=O)C1 [Example 2, (R)-3-[4-[3-(2-Methoxyphenyl)-1-pyrrolidinyl]butyl]-[1]benzothieno[3,2-d]pyrimidine-2,4(1H,3H)-dione Monohydrochloride] | 0.02 | 0.03 | 0.62 | 0.18
COc1cccc([C@H]2CCN(CCn3c(=O)[nH]c4c(sc5ccccc54)c3=O)C2)c1 [Example 3, (R)-3-[2-[3-(3-Methoxyphenyl)-1-pyrrolidinyl]ethyl]-[1]benzothieno[3,2-d]pyrimidine-2,4(1H,3H)-dione Monohydrochloride] | 5.95 | 20 | 59.7 | 34
COc1ccccc1[C@H]1CCN(CCn2c(=O)[nH]c3c(sc4cccnc43)c2=O)C1 [Example 4, (R)-3-[2-[3-(2-Methoxyphenyl)-1-pyrrolidinyl]ethyl]pyrido[2',3':4,5]thieno[3,2-d]pyrimidine-2,4(1H,3H)-dione bis(hydrochloride) Salt] | 0.83 | 2.38 | 1.52 | 2.61
COc1ccccc1[C@H]1CCN(CCCn2c(=O)[nH]c3c(sc4cccnc43)c2=O)C1 [Example 5, (R)-3-[3-[3-(2-Methoxyphenyl)-1-pyrrolidinyl]propyl]pyrido[2',3':4,5]thieno[3,2-d]pyrimidine-2,4(1H,3H)-dione Dihydrochloride] | 1.25 | 2.25 | 9.68 | 2.05
COc1ccccc1[C@H]1CCN(CCCCn2c(=O)[nH]c3c(sc4cccnc43)c2=O)C1 [Example 6, (R)-3-[4-[3-(2-Methoxyphenyl)-1-pyrrolidinyl]butyl]pyrido[2',3':4,5]thieno[3,2-d]pyrimidine-2,4(1H,3H)-dione Dihydrochloride] | 0.05 | 0.22 | 1.77 | 0.12
COc1ccccc1[C@H]1CCN(CCCCCn2c(=O)[nH]c3c(sc4cccnc43)c2=O)C1 [Example 7, (R)-3-[5-[3-(2-Methoxyphenyl)-1-pyrrolidinyl]pentyl]pyrido[2',3':4,5]thieno[3,2-d]pyrimidine-2,4(1H,3H)-dione, Dihydrochloride] | 0.18 | 2.13 | 4.86 | 2.11
COc1ccccc1[C@H]1CCN(CCCCn2c(=O)[nH]c3c(sc4ncccc43)c2=O)C1 [Example 8, (R)-3-[4-[3-(2-Methoxyphenyl)-1-pyrrolidinyl]butyl]pyrido[3',2':4,5]thieno[3,2-d]pyrimidine-2,4(1H,3H)-dione, Dihydrochloride] | 0.06 | 0.09 | 1.76 | 0.12
